Here are results for 13 compounds from US20250042886A1, “BIS(HETERO)ARYL THIOETHER OXADIAZINES AS FUNGICIDAL COMPOUNDS” (Bayer Aktiengesellschaft, priority 2021, published 2025).

The subject of one series is Pyrenophora teres. In words: Pyrenophora teres in vitro cell test. It is filed as cell-based. The following applies: 144 h, 50 μMol/l of active ingredient, liquid culture, 6 days incubation, read-out: efficacy (inhibition of fungal growth). Here is the method:
(§1) B-8. Pyrenophora teres In Vitro Cell Test • Solvent: DMSO • Culture medium: 14.6 g anhydrous D-glucose (VWR), 7.1 g Mycological Peptone (Oxoid), 1.4 g granulated Yeast Extract (Merck), QSP 1 liter • Inoculum: spore suspension Fungicides were solubilized in DMSO and the solution used to prepare the required range of concentrations. […] A spore suspension of P. teres was prepared and diluted to the desired spore density. Fungicides were evaluated for their ability to inhibit spore germination and mycelium growth in liquid culture assay. The compounds were added in the desired concentration to the culture medium with spores. After 6 days incubation, fungi-toxicity of compounds was determined by spectrometric measurement of mycelium growth. Inhibition of fungal growth was determined by comparing the absorbance values in wells containing the fungicides with the absorbance in control wells without fungicides.

A further series has as its system Fusarium culmorum. Nature of the series: Fusarium culmorum in vitro cell test. It is filed as cell-based. The following applies: 120 h, 50 μMol/l of active ingredient, liquid culture, 5 days incubation, read-out: efficacy (inhibition of fungal growth). As to the method:
B-10. Fusarium culmorum In Vitro Cell Test • Solvent: DMSO • Culture medium: 1 g KH2PO4 (VWR), 1 g K2HPO4 (VWR), 0.5 g Urea (VWR), 3 g KNO3 (Prolabo), 10 g saccharose (VWR), 0.5 g MgSO4, 7H2O (Sigma), 0.07 g CaCl2, 2H2O (Prolabo), 0.2 mg MnSO4, H2O (Sigma), 0.6 mg CuSO4, 5H2O (Sigma), 7.9 mg ZnSO4, 7H2O (Sigma), 0.1 mg H3BO3 (Merck), 0.14 mg NaMoO4, 2H2O (Sigma), 2 mg thiamine (Sigma), 0.1 mg biotine (VWR), 4 mg FeSO4, 7H2O (Sigma), QSP 1 liter • Inoculum: spores suspension
Fungicides were solubilized in DMSO and the solution used to prepare the required range of concentrations. The final concentration of DMSO used in the assay was ≤1%.
A spore suspension of F. culmorum was prepared and diluted to the desired spore density.
Fungicides were evaluated for their ability to inhibit spore germination and mycelium growth in liquid culture assay. The compounds were added in the desired concentration to the culture medium with spores. After 5 days incubation, fungi-toxicity of compounds was determined by spectrometric measurement of mycelium growth. Inhibition of fungal growth was determined by comparing the absorbance values in wells containing the fungicides with the absorbance in control wells without fungicides.

For another series, the system named is Pyricularia oryzae. Nature of the series: microbe, parasite or virus in culture. It is filed as cell-based. Particulars: 120 h, read-out: efficacy (inhibition of fungal growth), 50 μMol/l of active ingredient, liquid culture, 5 days incubation.
The subject of series [1] is Botrytis cinerea. In words: Botrytis cinerea in vitro cell test. It counts as cell-based. The following applies: 144 h, 50 μMol/l of active ingredient, liquid culture, 6 days incubation, read-out: efficacy (inhibition of fungal growth). The essentials:
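Compounds from DMSO stocks added at a range of concentrations to a defined mineral-salt/sucrose liquid medium inoculated with B. cinerea spores. After 6 days' incubation, mycelium growth was read by absorbance; inhibition of germination and growth was calculated against fungicide-free control wells.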

The nature of series [2]: Measurement of Log P values by HPLC on reversed phase columns (EEC directive 79/831 Annex V.A8). It is filed as physicochemical. The following applies: Table 1, compounds of formula (I); method [a]: LC-UV, acidic range, 0.1% formic acid in water and acetonitrile.
Series [3] relates to Botrytis cinerea. In words: In vivo preventive test on Botrytis cinerea (grey mould). Particulars: 500 ppm of active ingredient, sprayed on young gherkin or cabbage plants 24 h before inoculation, evaluated 4 to 5 days after inoculation, read-out: efficacy. As to the method:
The active ingredients were made soluble and homogenized in a mixture of Dimethyl sulfoxide/Acetone//Tween® 80 and then diluted in water to the desired concentration. The young plants of gherkin or cabbage were treated by spraying the active ingredient prepared as described above. Control plants were treated only with an aqueous solution of Acetone/Dimethyl sulfoxide/Tween® 80. After 24 hours, the plants were contaminated by spraying the leaves with an aqueous suspension of Botrytis cinerea spores.

A further series relates to Alternaria alternata. In words: Alternaria alternata in vitro cell test. It is filed as cell-based. The following applies: 120 h, 50 μMol/l of active ingredient, liquid culture, 5 days incubation, read-out: efficacy (inhibition of fungal growth). As to the method:
as §1, with “B-5. Alternaria alternata In” for “B-8. Pyrenophora teres In”, “Inoculum: spores” for “Inoculum: spore”, “of A. alternata” for “of P. teres”, “After 5” for “After 6”

The next series deals with Alternaria brassicae. In words: In vivo preventive test on Alternaria brassicae (leaf spot on radish or cabbage). The following applies: 500 ppm of active ingredient, sprayed on young radish or cabbage plants 24 h before inoculation, evaluated 3 to 4 days after inoculation, read-out: efficacy. As to the method:
B-1. […] The active ingredients were made soluble and homogenized in a mixture of Dimethyl sulfoxide/Acetone//Tween® 80 and then diluted in water to the desired concentration. The young plants of radish or cabbage were treated by spraying the active ingredient prepared as described above. Control plants were treated only with an aqueous solution of Acetone/Dimethyl sulfoxide/Tween® 80. After 24 hours, the plants were contaminated by spraying the leaves with an aqueous suspension of Alternaria brassicae spores.

In series [4] the test system is Colletotrichum lindemuthianum. In words: Colletotrichum lindemuthianum in vitro cell test. It is filed as cell-based. Particulars: 144 h, 50 μMol/l of active ingredient, liquid culture, 6 days incubation, read-out: efficacy (inhibition of fungal growth). As to the method:
as §1, with “B-7. Colletotrichum lindemuthianum In” for “B-8. Pyrenophora teres In”, “Inoculum: spores” for “Inoculum: spore”, “of C. lindemuthianum” for “of P. teres”, “inhibit spores” for “inhibit spore”

Molecules are shown by their SMILES.

For the compound `Cc1cc([C@H]2CON=C(c3c(Sc4cccc(F)c4)nnc(C)c3C)N2)c(C)s1` (racemic) [Compound I-050], the inhibition at 50 µM (with Pyrenophora teres; in the series with Fusarium culmorum; in the series on Pyricularia oryzae; in the series on Botrytis cinerea [1]; in the series on Alternaria alternata; in [4]) was 90 to 100% each time. The chromatographic logP in [2] is 3.16. The pest or weed control at 500 ppm with Botrytis cinerea [3] and with Alternaria brassicae was 90 to 100% in each case.
`Cc1cc([C@H]2CON=C(c3c(Sc4ccccc4Cl)nnc(C)c3C)N2)c(C)s1` (racemic) [Compound I-059]: the inhibition at 50 µM lay in the range of 90 to 100% in the series with Pyrenophora teres, 90 to 100% in the series on Botrytis cinerea [1] and 80 to 89% in the series on Alternaria alternata. The chromatographic logP in series [2] amounted to 3.31. Further, the pest or weed control at 500 ppm with Botrytis cinerea [3] and in the series on Alternaria brassicae was 90 to 100% throughout.
In the case of `Cc1ccc([C@H]2CON=C(c3c(Sc4ccccc4Cl)nnc4ccccc34)N2)s1` (racemic) [Compound I-067], the inhibition at 50 µM with Pyrenophora teres is 90 to 100%; in the series with Pyricularia oryzae, 70 to 79%; in the series on Botrytis cinerea [1] it was 90 to 100%; in the series on Alternaria alternata it was 90 to 100%; in [4], 80 to 89%. This compound also displayed a chromatographic logP in [2] of 3.4. Besides, the pest or weed control at 500 ppm in the series on Botrytis cinerea [3] and with Alternaria brassicae was 90 to 100% in each case.
On to `Cc1cc([C@@H]2CON=C(c3c(Sc4cccc(Cl)c4F)nnc(C)c3C)N2)c(C)s1` (racemic) [Compound I-071], for which the inhibition at 50 µM (with Pyrenophora teres; with Fusarium culmorum; in the series with Pyricularia oryzae; in the series with Botrytis cinerea [1]; in the series with Alternaria alternata; in [4]) was 90 to 100% in each case. The compound further returned a chromatographic logP in [2] of 3.58.
Regarding `Cc1cc([C@H]2CON=C(c3c(Sc4ccc(F)c(F)c4)nnc(C)c3C)N2)c(C)s1` (racemic) [Compound I-091], the inhibition at 50 µM in the series on Pyrenophora teres was in the range of 90 to 100%; in the series on Fusarium culmorum, 90 to 100%; with Pyricularia oryzae, 80 to 89%; with Botrytis cinerea [1] it was 90 to 100%; with Alternaria alternata, 80 to 89%; in series [4], 90 to 100%. In series [2], this compound returned a chromatographic logP of 3.33. For the same compound, the pest or weed control at 500 ppm fell in the range of 90 to 100% in the series on Botrytis cinerea [3] and 80 to 89% in the series on Alternaria brassicae.
Take `Cc1ccc(C2CON=C(c3c(Sc4cccc(Cl)c4F)nnc(C)c3C)N2)s1` (racemic) [Compound I-103]: the inhibition at 50 µM lay within 90 to 100% in the series with Pyrenophora teres; 80 to 89% in the series with Fusarium culmorum; 90 to 100% with Pyricularia oryzae; 90 to 100% with Botrytis cinerea [1]; 90 to 100% in the series on Alternaria alternata; 90 to 100% in series [4]. Also, the chromatographic logP in [2] was determined as 3.21.
Take `Cc1ccc(C2CON=C(c3c(Sc4cccc(Cl)c4)nnc(C)c3C)N2)s1` (racemic) [Compound I-104]: the inhibition at 50 µM (with Pyrenophora teres; in the series on Fusarium culmorum; in the series with Pyricularia oryzae; in the series on Botrytis cinerea [1]; in the series on Alternaria alternata; in series [4]) was 90 to 100% each time. For the same compound, the chromatographic logP in series [2] came out at 3.14.
`Cc1cc([C@H]2CON=C(c3c(Sc4ccc(C)c(C)c4)nnc(C)c3C)N2)c(C)s1` (racemic) [Compound I-111]: the inhibition at 50 µM lay in the range of 90 to 100% in the series with Pyrenophora teres; 90 to 100% with Fusarium culmorum; 90 to 100% in the series on Botrytis cinerea [1]; 70 to 79% in the series on Alternaria alternata; 90 to 100% in [4]. The chromatographic logP in series [2] was 3.64. For the same compound, the pest or weed control at 500 ppm with Botrytis cinerea [3] fell in the range of 80 to 89%.
As for `Cc1cc([C@@H]2CON=C(c3c(Sc4cccc(Cl)c4Cl)nnc(C)c3C)N2)c(C)s1` (racemic) [Compound I-118], the inhibition at 50 µM with Pyrenophora teres fell in the range of 90 to 100%; in the series on Pyricularia oryzae, 80 to 89%; in the series with Botrytis cinerea [1] it was 90 to 100%; in the series on Alternaria alternata, 90 to 100%; in series [4] it was 80 to 89%. The compound further had a chromatographic logP in series [2] of 3.7.
As to `Cc1cc([C@@H]2CON=C(c3c(Sc4ccc5ccccc5c4)nnc(C)c3C)N2)c(C)s1` (racemic) [Compound I-122], the inhibition at 50 µM in the series with Pyrenophora teres lay in the range of 80 to 89%; with Fusarium culmorum, 90 to 100%; with Alternaria alternata, 70 to 79%; in [4] it was 70 to 79%. Besides, in series [2], the chromatographic logP was determined as 3.68.
Regarding `Cc1ccc([C@H]2CON=C(c3c(Sc4cccc(F)c4)nnc(C)c3C)N2)s1` (racemic) [Compound I-125], the inhibition at 50 µM with Pyrenophora teres was 80 to 89%; in the series on Fusarium culmorum, 90 to 100%; in the series on Pyricularia oryzae, 80 to 89%; in the series with Botrytis cinerea [1], 90 to 100%; with Alternaria alternata, 70 to 79%; in [4] it was 90 to 100%. This compound also returned a chromatographic logP in series [2] of 2.83.
Consider `Cc1ccc([C@H]2CON=C(c3c(Sc4cccc(Cl)c4Cl)nnc4ccccc34)N2)s1` (racemic) [Compound I-131], for which the inhibition at 50 µM with Pyrenophora teres was 90 to 100%; with Pyricularia oryzae, 80 to 89%; in the series with Botrytis cinerea [1], 90 to 100%; in the series with Alternaria alternata, 90 to 100%; in [4], 90 to 100%. For the same compound, the chromatographic logP in series [2] came out at 3.8. Further, the pest or weed control at 500 ppm with Botrytis cinerea [3] and in the series on Alternaria brassicae was 90 to 100% each time.
With `Cc1ccc([C@@H]2CON=C(c3c(Sc4cccc(Cl)c4Cl)nnc(C)c3C)N2)s1` (racemic) [Compound I-136], the inhibition at 50 µM fell in the range of 90 to 100% in the series on Pyrenophora teres, 70 to 79% with Pyricularia oryzae, 90 to 100% with Botrytis cinerea [1] and 80 to 89% in the series with Alternaria alternata. Besides, the chromatographic logP in series [2] is 3.31.
